The values that follow are results of earlier work, collected in patent US20210353783A1, “IMAGING AGENTS FOR RADIOLABELING EXOGENOUS AND ENDOGENOUS ALBUMIN” (CENTURION BIOPHARMA CORPORATION, priority 2018, published 2021).

The conditions of data set [1]: human, after intravenous administration, bound to cysteine-34 of endogenous albumin.
The conditions of data set [2]: phase 1-3 clinical trials.
A further data set concerns the target circulating albumin (Homo sapiens, UniProt P02768).

The structures appear in SMILES notation.

Sequence of circulating albumin (P02768 25-609): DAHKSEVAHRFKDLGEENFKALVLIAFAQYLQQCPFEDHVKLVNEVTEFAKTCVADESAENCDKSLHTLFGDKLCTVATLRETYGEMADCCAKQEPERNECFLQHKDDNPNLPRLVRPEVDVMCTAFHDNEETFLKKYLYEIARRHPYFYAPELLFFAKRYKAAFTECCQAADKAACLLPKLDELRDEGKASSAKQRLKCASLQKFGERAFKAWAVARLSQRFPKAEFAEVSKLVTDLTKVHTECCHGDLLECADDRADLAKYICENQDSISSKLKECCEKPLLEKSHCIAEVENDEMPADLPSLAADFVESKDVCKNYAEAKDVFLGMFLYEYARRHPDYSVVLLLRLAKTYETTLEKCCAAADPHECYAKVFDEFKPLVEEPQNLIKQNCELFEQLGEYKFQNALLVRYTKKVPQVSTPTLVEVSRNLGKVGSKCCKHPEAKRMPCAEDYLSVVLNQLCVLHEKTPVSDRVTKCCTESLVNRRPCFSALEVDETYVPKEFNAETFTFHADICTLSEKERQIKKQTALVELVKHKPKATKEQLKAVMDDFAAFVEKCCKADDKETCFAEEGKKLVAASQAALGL

With `COc1cccc2c1C(=O)c1c(O)c3c(c(O)c1C2=O)C[C@@](O)(/C(CO)=N/NC(=O)CCCCCN1C(=O)C=CC1=O)C[C@@H]3O[C@H]1C[C@H](N)[C@H](O)[C@H](C)O1` [aldoxorubicin, (6-maleimidocaproyl)hydrazone derivative of doxorubicin], the t1/2 in man in data set [1] is 20 to 21 h. Moreover, in data set [2], the cardiotoxicity entry is “lack of cardiotoxicity” and the “increase in the maximum tolerated dose (MTD) compared to conventional doxorubicin” value is given as 3.5 fold. Also, the “binding to circulating albumin” value on circulating albumin is “rapidly and selectively bound to circulating albumin within a few minutes”.
